Assay: Human HepG2 cell viability assay in 384 well format
Format: toxicity, cell-based
Set-up: dose 125 nL, time 70.5 hour; cytotoxicity at 70.5 h: concentration not given beside the values
Details: HepG2 cells, read-out: Inhibition

| SMILES | cytotoxicity at 70.5 h |
| --- | --- |
| COc1ccc(-n2ncc3c2NC(=O)CSC3C(C)C)cc1 (stereo not drawn) | -3.9% |
| O=C(CN1C(=O)CC2(CCCC2)C1=O)NCCc1nccs1 | -14.1% |
| Cc1nn(-c2ccc(C(=O)O)cc2)c2c1C(c1ccsc1)SCC(=O)N2 (stereo not drawn) | -1.43% |
| COCCn1ccc2c(C(=O)Nc3nc4c(s3)CCC4)cccc21 | -1.37% |
| CC(C)CC1SCC(=O)Nc2c1cnn2-c1ccccc1F (stereo not drawn) | -22.8% |
| CC(C)Cn1cc(C(=O)NC2CCS(=O)(=O)C2)c2ccccc2c1=O (stereo not drawn) | -13.3% |
| Cc1cc(C)nc(N2CCC(C(=O)Nc3n[nH]c(C(C)C)n3)CC2)n1 | -11.5% |
| Cn1ccc2cc(C(=O)Nc3nc[nH]n3)ccc21 | 15.8% |
| Cc1cc(C)nc(-n2nc(C)c3c2NC(=O)CSC3c2cnn(C)c2)n1 (stereo not drawn) | -31.4% |
| CC(C)c1nn2c(-c3cnn(C)c3)nnc2s1 | -9.47% |
| Cn1ccc2ccc(C(=O)Nc3nc[nH]n3)cc21 | 13.7% |
| Cc1cc(C)nc(N2CCC(C(=O)Nc3ncc[nH]3)CC2)n1 | -7.67% |
| CN1CCN(CCCNC(=O)CCc2nc3cc(Br)cnc3[nH]2)CC1 | -31% |
| COCc1nnc(NC(=O)c2cn(C(C)C)c3ccc(OC)cc23)s1 | -10.1% |
| Cc1cc(O)cc(=O)n1CCCC(=O)Nc1n[nH]c2cc(Br)ccc12 | -13.4% |
| CC(C)C1SCC(=O)Nc2c1cnn2-c1ccc(F)cc1 (stereo not drawn) | -1.99% |
| Cc1nn(-c2ncccn2)c2c1C(c1cnn(C)c1C)SCC(=O)N2 (stereo not drawn) | -22.5% |
| CC(C)C1SCC(=O)Nc2c1c(O)nn2C1CCCC1 (stereo not drawn) | -23.1% |
| O=c1c(CN2CCCCCC2)coc(O)c1CN1CCOCC1 | -2.1% |
| C[C@@H](O)CNC(=O)CCc1nc2cccnc2[nH]1 | -23.4% |
| Cn1ccc2cc(C(=O)NC3CCS(=O)(=O)C3)ccc21 (stereo not drawn) | -10.9% |
| COc1ccc2cc(NC(=O)CCNc3nc(C)cc(C)n3)cnc2c1 | -24.1% |
| Cc1ccc(S(=O)(=O)c2ncccc2CN2CCOCC2)cc1 | -17.9% |

| SMILES | cytotoxicity at 70.5 h |
| --- | --- |
| O=C1CCC(c2ccccc2)=NN1CN1CCCCCC1 | -14% |
| CC(C)CC1SCC(=O)Nc2c1cnn2C1CCCC1 (stereo not drawn) | -18.7% |
| Cc1c(C2SCC(=O)Nc3c2c(O)nn3C(C)C)cnn1C (stereo not drawn) | -26.6% |
| CC(C)n1ncc2c1NC(=O)CSC2C(F)(F)F (stereo not drawn) | -21% |
| COc1ccc2cc(NC(=O)CCNc3ncccn3)cnc2c1 | -29.1% |
| O=C(NCCc1nccs1)c1n[nH]c2c1CCC2 | -11.1% |
| CC(C)c1sc(Br)nc1C(=O)NCc1ccco1 | 32.2% |
| COc1cccc2c1ccn2CCNC(=O)CCNc1ncccn1 | -18% |
| CS(=O)(=O)N1CCN(C(=O)c2cc(-c3ccc(Br)s3)n[nH]2)CC1 | -10.2% |
| Cc1cc(C)nc(N2CCC(C(=O)Nc3n[nH]c(C)n3)CC2)n1 | -7.75% |
| COc1ccccc1-c1cc(C(=O)Nc2nc[nH]n2)[nH]n1 | -12.9% |
| COc1ccc(CNC(=O)CCc2nnc3ccccn3c2=O)cc1 | 20.7% |
| Cn1cc(NC(=O)C2CC(=O)N(c3n[nH]c4cccc(F)c34)C2)cn1 (stereo not drawn) | -26.5% |
| O=C(C1CC(=O)N(c2n[nH]c3cc(Br)ccc23)C1)N1CCSCC1 (stereo not drawn) | -9.09% |
| Cn1cnc2cc(CCC(=O)Nc3n[nH]c(C4CCCO4)n3)ccc21 (stereo not drawn) | 1.89% |
| Cc1cc(-c2nn3c(C(C)C)nnc3s2)on1 | -10.1% |
| O=C(Cn1cnc2sccc2c1=O)NCCc1nnc2ccccn12 | -11.3% |
| COCCn1cnc2ccc(NC(=O)CCCn3cccn3)cc2c1=O | -7.81% |
| Cn1cc(C2SCC(=O)Nc3c2c(=O)[nH]n3C2CCOCC2)cn1 (stereo not drawn) | 17.2% |
| CC(C)n1ccc2c(C(=O)NC3CN4CCC3CC4)cccc21 (stereo not drawn) | -17.6% |
| CC(C)c1nc2cc(NC(=O)c3n[nH]c4c3CCC4)ccc2n1C | -9.08% |
| COCCn1cnc2ccc(NC(=O)C3CC3)cc2c1=O | -8.53% |
| COCCn1cnc2ccc(NC(=O)C(C)C)cc2c1=O | -7.01% |

| SMILES | cytotoxicity at 70.5 h |
| --- | --- |
| O=C(Nc1nc[nH]n1)c1cc(-c2ccc(F)cc2)n[nH]1 | -14.4% |
| Cc1nc(C(=O)N2CCN(S(C)(=O)=O)CC2)c(-c2ccccc2Cl)s1 | 16% |
| Cc1cc(C)n(-c2cccc(C(=O)Nc3n[nH]c(C4CCCO4)n3)c2)n1 (stereo not drawn) | -8.19% |
| Cc1cc(C(=O)Nc2n[nH]c(C3CC3)n2)c2c(C)nn(C)c2n1 | 25.6% |
| COc1ccc(CC(=O)Nc2ccc3ncn(C(C)C)c(=O)c3c2)cc1 | -5.16% |
| COc1ccc(CCC(=O)Nc2ccc3ncn(C)c(=O)c3c2)cc1 | -2.91% |
| COc1cn(CC(=O)N2CCC(c3ccccc3)CC2)c(C)cc1=O | 23.7% |
| COc1ccc2c(ccn2CCC(=O)Nc2n[nH]c(CC(C)C)n2)c1 | 24% |
| Cc1[nH]nc(-c2ccc(F)cc2)c1CC(=O)NCC1CCOCC1 | -9.72% |
| COc1ccc(NC(=O)c2nc(C)sc2C)cn1 | 28% |
| Cn1cnc2cc(CCC(=O)Nc3n[nH]c(C4CC4)n3)ccc21 | 17.9% |
| CC(C)Cc1nc(NC(=O)c2cccnc2)n[nH]1 | -14.7% |
| COC(=O)CNC(=O)c1nc(Br)sc1C(C)C | 42.9% |
| O=C1CSC(c2ccc(Cl)cc2Cl)c2c(n(C3CCOCC3)[nH]c2=O)N1 (stereo not drawn) | -23.1% |
| COc1ccc(C(=O)Nc2n[nH]c(C3CCCO3)n2)cc1 (stereo not drawn) | 26.5% |
| COc1ccc2c(ccn2CC(=O)Nc2n[nH]c(CC(C)C)n2)c1 | -11.7% |
| CCN1CCCC1CNC(=O)Cc1c(C)n[nH]c1-c1ccc(OC)cc1 (stereo not drawn) | 24.8% |
| CC(C)Cn1ccc2c(NC(=O)c3n[nH]c4c3CCC4)cccc21 | 5.24% |
| CC(=O)Nc1cccc2c1ccn2CC(=O)Nc1ncc[nH]1 | -5.41% |
| COc1ccc2nnc(CCCC(=O)NCCc3ccccn3)n2n1 | -3.59% |
| CC(=O)Nc1cccc2c1ccn2CC(=O)Nc1nc[nH]n1 | -2.28% |
| COc1ccc2c(c1)s/c(=N\C(=O)CSCC(=O)Nc1nccs1)n2C | 16.4% |
| COCCN(C)C(=O)c1nc2c(s1)CCCN2S(C)(=O)=O | 3.66% |

| SMILES | cytotoxicity at 70.5 h |
| --- | --- |
| CC(C)NC(=O)[C@H]1C[C@H]2NCCO[C@@H]2C1 | 3.88% |
| O=C(Nc1ccccc1)N1C[C@@H]2OCCN(C(=O)c3ccco3)[C@@H]2C1 | -0.595% |
| Cc1cnc(N2C[C@@H]3[C@@H](C(=O)NCC(C)C)CCS(=O)(=O)[C@@H]3C2)nc1 | 0.36% |
| Cn1nc(CN2CCCC2)c2c1CN(C(=O)c1cnccn1)CC2 | -1.41% |
| CS(=O)(=O)N1CCCc2sc(C(=O)NC3CC3)nc21 | -3.24% |
| COCCO[C@H]1CCN(c2cc(OC)ncn2)[C@H]1Cc1cnn(C)c1 | -4.71% |
| O=S(=O)(C1CC1)N1CCO[C@@H]2CN(Cc3ccco3)C[C@@H]2C1 | -2.12% |
| CN1CCN(C(=O)C[C@@H]2COC[C@H]3CN(c4ccncn4)C[C@@H]23)CC1 | 12.2% |
| CC(C)NC(=O)c1nc2c(s1)CCCN2c1ccccc1 | 5.99% |
| COCC1CC2(CCN(C(=O)C3CCSCC3)CC2)CO1 (stereo not drawn) | 8.61% |
| Cc1ccc(CN2CCC3(CCCN(C(=O)N(C)C)C3)C2)cc1 (stereo not drawn) | -6.47% |
| Cc1nc(C(=O)N2CCCC(c3cc(C(F)(F)F)[nH]n3)C2)c[nH]1 (stereo not drawn) | -6.23% |
| Cc1ccc(C(=O)N2CCCC(c3cc(C(F)(F)F)[nH]n3)C2)o1 (stereo not drawn) | -5.23% |
| Cc1ccc(C(=O)NS(=O)(=O)c2ccccc2F)c(=O)[nH]1 | -1.46% |
| Cc1ccc(CC(=O)N2CCOCC2c2ncon2)cc1 (stereo not drawn) | -5.42% |
| CC1CCN(CCCNC(=O)NC(C)c2nncn2C)CC1 (stereo not drawn) | -3.78% |
| Cn1ccc2c(C(=O)N3CCCC(c4nnc[nH]4)C3)cccc21 (stereo not drawn) | 4.32% |
| CCc1nc(C2CCCN2CC(=O)NCCc2ccsc2)no1 (stereo not drawn) | 0.0583% |
| CCOC1CCCN(C(=O)c2nn(-c3ccccc3F)cc2O)C1 (stereo not drawn) | -3.95% |
| C=C(Br)CN(C)C1CCN(CCc2ccccn2)CC1 | -6.85% |
| Cc1nc(CN2CCCC(N(C)CC3(O)CCCCC3)C2)no1 (stereo not drawn) | 0.0355% |
| CCc1noc(CN(C)CC(c2cccs2)N2CCOCC2)n1 (stereo not drawn) | -1.63% |
| Cc1noc(CN(C)CC(c2cccs2)N2CCOCC2)n1 (stereo not drawn) | -4.96% |

| SMILES | cytotoxicity at 70.5 h |
| --- | --- |
| N#Cc1cc(F)ccc1CN1CCCCC1Cn1cccn1 (stereo not drawn) | -1.56% |
| N#Cc1ccc(CN2CCCC2Cn2cccn2)cc1 (stereo not drawn) | 2.25% |
| CC1COCCN1C(=O)Nc1cnc2c(cnn2C(C)C)c1 (stereo not drawn) | -2.52% |
| Cc1ncc(CN(C)CCO)c2cc(C(=O)c3ccc(Br)cc3)oc12 | -15.5% |
| Cn1nnc2c1CCN(Cc1ccoc1)C2COCc1ccccc1 (stereo not drawn) | 1.66% |
| CN(C)C1CC2(CCN(C(=O)c3csnn3)CC2)c2ccccc21 (stereo not drawn) | -0.291% |
| CCOC1CC2(CCN(Cc3cccn3C)CC2)C1 | 2.31% |
| Cc1cc(CN2C[C@@H]3CN(C(=O)c4cccn4C)CCO[C@@H]3C2)no1 | 1.95% |
| CC(C)COC1CC2(CCN(Cc3nccn3C)CC2)C1 | 6.92% |
| COC1CC2(CCN(Cc3nccn3C)CC2)C1 | -5.43% |
| O=C(c1ccsc1)N1CCO[C@@H]2CN(Cc3ccccn3)CC[C@@H]2C1 | 8.56% |
| CC(C)Nc1ncnc2c1CCN(C(=O)NCc1cccnc1)CC2 | -1.24% |
| CCOc1ncnc2c1CCN(C(=O)NCc1cccnc1)CC2 | 6.36% |
| CCS(=O)(=O)N1C[C@@H]2CN(Cc3ccco3)CCO[C@@H]2C1 | 27.9% |
| COc1cc(N2CCC3(CCCN(C(=O)c4cccnc4)C3)C2)ncn1 (stereo not drawn) | 16.7% |
| CCN1CCO[C@@H]2CN(C(=O)COC3CCCC3)C[C@@H]2C1 | 7.26% |
| Cc1cccc(COCC2c3nnn(C)c3CCN2Cc2ccoc2)n1 (stereo not drawn) | -5.52% |
| c1nc2n(c1CN1CCCCC1)CCN(C1CCOC1)CC2 (stereo not drawn) | -3.62% |
| CC(C)NC1CCc2c(ccc(=O)n2CCN(C)C)C1 (stereo not drawn) | 7.71% |
| COCCN1CCCn2cnc(CNC(=O)N(C)C)c2C1 | -3.75% |
| CN(C)Cc1noc2c1CN(C(=O)c1ccncc1)CC2 | 5.83% |
